Assay results: US11147272B2, “Pyridone compounds and agricultural and horticultural fungicides comprising the same as active ingredients” (MITSUI CHEMICALS AGRO, INC., priority 2017, dated 2021)

Columns and labels:
Magnaporthe grisea = assay: whole plant or invertebrate; type: in vivo; settings: for Test A control value class: Blast on rice, class of control value; for Test A control value: 250 ppm drug solution sprayed on test plant
Alternaia brassicicola = assay: Test Example C: Alternaria sooty spot on cabbage; type: in vivo; settings: for Test C control value class: Alternaria sooty spot on cabbage, class of control value; for Test C control value: 250 ppm drug solution sprayed on test plant
From the text: Seeds of a test plant (cabbage variety: Shikidori) were planted and cultivated until the cotyledons extended.
<Control Value> Control value=100{1−(n/3)}

Puccinia recondita = assay: Test Example E: Brown rust on wheat; type: in vivo; settings: for Test E control value class: Brown rust on wheat, class of control value
Phytophthora infestans = assay: whole plant or invertebrate; type: in vivo; settings: for Test F control value class: Late blight on tomato, class of control value; for Test F control value: 250 ppm drug solution sprayed on test plant
Botrytis cinerea = assay: Test Example B: Gray mold on tomato; settings: for Test B control value class: Gray mold on tomato, class of control value
Plasmopara viticola = assay: Test Example G: Downy mildew on vine; settings: for Test G control value class: Downy mildew on vine (Neomuscat), 250 ppm spray, 2.5 ml/pot, assessed 7 to 10 days after inoculation; for Test G control value: 250 ppm drug solution sprayed (2.5 ml/pot), grape Neomuscat, 7 to 10 days after inoculation
[1] = system: Colletotrichum orbiculare; assay: Test Example H: Anthracnose on cucumber; settings: for Test H control value class: Anthracnose on cucumber (Sagami Hanjiro), 250 ppm spray, 2.5 ml/pot, assessed 6 to 10 days after inoculation; for Test H control value: 250 ppm drug solution sprayed (2.5 ml/pot), cucumber Sagami Hanjiro, 6 to 10 days after inoculation
[2] = system: Blumeria graminis f. sp. hordei; assay: Test Example D: Powdery mildew on barley; settings: Powdery mildew on barley; class of control value
[3] = 250 ppm drug solution sprayed on test plant

SMILES | Test A control value class (Magnaporthe grisea) | Test C control value class (Alternaia brassicicola) | Test E control value class (Puccinia recondita) | Test F control value class (Phytophthora infestans) | Test B control value class (Botrytis cinerea) | Test G control value class (Plasmopara viticola) | Test H control value class [1] | Test D control value class [2] | Test A control value (Magnaporthe grisea) | Test C control value (Alternaia brassicicola) | Test F control value (Phytophthora infestans) | Test G control value (Plasmopara viticola) | Test H control value [1] | Test E control value (Puccinia recondita; [3]) | Test B control value (Botrytis cinerea; [3])
CCn1c(-c2c(F)cc(F)cc2F)c(C(C)(O)C(C)C)cc(Cl)c1=O (racemic) [compound 106] | H (more than 50% control value) | H (more than 50% control value) | H (more than 50% control value) | H (more than 50% control value) | H (more than 50% control value) | H (more than 50% control value) | H (more than 50% control value) | H (more than 50% control value) |  |  |  |  |  |  | 
CCn1c(-c2c(F)cc(F)cc2F)c(C(C)(OC)C(C)C)cc(Cl)c1=O (racemic) [compound 107] | H (more than 50% control value) | H (more than 50% control value) | H (more than 50% control value) | L (50% or less control value) | H (more than 50% control value) | H (more than 50% control value) | H (more than 50% control value) | H (more than 50% control value) |  |  |  |  |  |  | 
CCn1c(-c2c(F)cc(OC)cc2F)c(C(C)(O)C(C)C)cc(Cl)c1=O (racemic) [compound 108] | H (more than 50% control value) | H (more than 50% control value) | H (more than 50% control value) | L (50% or less control value) | H (more than 50% control value) | H (more than 50% control value) | H (more than 50% control value) | H (more than 50% control value) |  |  |  |  |  |  | 
CCn1c(-c2c(F)cc(OC)cc2F)c(C(C)(OC)C(C)C)cc(Cl)c1=O (racemic) [compound 110] | H (more than 50% control value) | H (more than 50% control value) | H (more than 50% control value) | L (50% or less control value) | H (more than 50% control value) | H (more than 50% control value) | H (more than 50% control value) | H (more than 50% control value) |  |  |  |  |  |  | 
CCn1c(-c2c(F)cc(F)cc2F)c(C(O)C(C)(C)C)cc(Cl)c1=O (racemic) [compound 163] | H (more than 50% control value) | H (more than 50% control value) | H (more than 50% control value) | L (50% or less control value) | H (more than 50% control value) | H (more than 50% control value) | H (more than 50% control value) | H (more than 50% control value) |  |  |  |  |  |  | 
CCn1c(-c2c(F)cc(F)cc2F)c(C(C)(CC(C)C)OC)cc(Cl)c1=O (racemic) [compound 164] | H (more than 50% control value) | H (more than 50% control value) | H (more than 50% control value) | L (50% or less control value) | H (more than 50% control value) | H (more than 50% control value) | L (50% or less control value) | H (more than 50% control value) |  |  |  |  |  |  | 
CCn1c(-c2c(F)cc(OC)cc2F)c(C(C)(CC(C)C)OC)cc(Cl)c1=O (racemic) [compound 165] | H (more than 50% control value) | H (more than 50% control value) | H (more than 50% control value) | L (50% or less control value) | H (more than 50% control value) | H (more than 50% control value) | H (more than 50% control value) | H (more than 50% control value) |  |  |  |  |  |  | 
CCn1c(-c2c(F)cc(F)cc2F)c(C(C)(F)C(C)C)cc(Cl)c1=O (racemic) [compound 166] | H (more than 50% control value) | H (more than 50% control value) | H (more than 50% control value) | H (more than 50% control value) | H (more than 50% control value) | H (more than 50% control value) | H (more than 50% control value) | H (more than 50% control value) |  |  |  |  |  |  | 
CCn1c(-c2c(F)cc(OC)cc2F)c(C(C)(F)C(C)C)cc(Cl)c1=O (racemic) [compound 167] | H (more than 50% control value) | H (more than 50% control value) | H (more than 50% control value) | H (more than 50% control value) | H (more than 50% control value) | H (more than 50% control value) | H (more than 50% control value) | H (more than 50% control value) |  |  |  |  |  |  | 
CCn1c(-c2c(F)cc(F)cc2F)c(C(OC)C(C)(C)C)cc(Cl)c1=O (racemic) [compound 168] | H (more than 50% control value) | H (more than 50% control value) | H (more than 50% control value) | L (50% or less control value) | H (more than 50% control value) | L (50% or less control value) | L (50% or less control value) | H (more than 50% control value) |  |  |  |  |  |  | 
CCn1c(-c2c(F)cc(OC)cc2F)c(C(OC)C(C)(C)C)cc(Cl)c1=O (racemic) [compound 170] | H (more than 50% control value) | H (more than 50% control value) | H (more than 50% control value) | H (more than 50% control value) | H (more than 50% control value) | H (more than 50% control value) | H (more than 50% control value) | H (more than 50% control value) |  |  |  |  |  |  | 
CCCc1ccc(=O)n(C)c1-c1ccc(OC)cc1C [compound 425] |  |  |  |  |  |  |  |  | H (more than 50% control value) | L (50% or less control value) | L (50% or less control value) | L (50% or less control value) | H (more than 50% control value) |  | 
C=Cc1cc(Cl)c(=O)n(CC)c1-c1c(F)cc(F)cc1F [compound 517] |  |  |  |  |  |  |  |  | L (50% or less control value) | H (more than 50% control value) | L (50% or less control value) | H (more than 50% control value) | H (more than 50% control value) |  | 
CCn1c(-c2c(F)cc(F)cc2F)c(C(C)OC)cc(Cl)c1=O (stereo not drawn) [compound 519] |  |  |  |  |  |  |  |  | H (more than 50% control value) | H (more than 50% control value) | L (50% or less control value) | H (more than 50% control value) | H (more than 50% control value) | H (more than 50% control value) | H (more than 50% control value)
